molecular target: FXR (Homo sapiens (Human), UniProt Q96RI1); test: FXR EC50 (FXR agonist potency reported with each Example); assay type: cell-based
Sequence (Q96RI1 262-486): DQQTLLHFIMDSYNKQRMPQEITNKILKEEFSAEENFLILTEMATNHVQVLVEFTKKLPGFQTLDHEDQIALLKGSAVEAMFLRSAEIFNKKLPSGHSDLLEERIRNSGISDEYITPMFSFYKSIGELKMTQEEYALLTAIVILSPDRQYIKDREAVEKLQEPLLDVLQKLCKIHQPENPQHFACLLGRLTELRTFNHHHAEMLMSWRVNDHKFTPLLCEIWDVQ

Structure (SMILES) | EC50
CC(C)(C)c1nc(C23CCC(CN(C(=O)C45CC(F)(C4)C5)c4cccc(-c5noc(C6(C)CC6)n5)c4)(CC2)CC3)no1 [Example 177, N-((4-(5-(tert-butyl)-1,2,4-oxadiazol-3-yl)bicyclo[2.2.2]octan-1-yl)methyl)-3-fluoro-N-(3-(5-(1-methylcyclopropyl)-1,2,4-oxadiazol-3-yl)phenyl)bicyclo[1.1.1]pentane-1-carboxamide] | 33 nM
CC1(c2nc(-c3cccc(N(CC45CCC(c6noc(C(F)F)n6)(CC4)CC5)C(=O)C45CC(F)(C4)C5)c3)no2)CC1 [Example 178, N-((4-(5-(difluoromethyl)-1,2,4-oxadiazol-3-yl)bicyclo[2.2.2]octan-1-yl)methyl)-3-fluoro-N-(3-(5-(1-methylcyclopropyl)-1,2,4-oxadiazol-3-yl)phenyl)bicyclo[1.1.1]pentane-1-carboxamide] | 73 nM
CC(F)(F)c1nc(C23CCC(CN(C(=O)C45CC(F)(C4)C5)c4cccc(-c5noc(C6(C)CC6)n5)c4)(CC2)CC3)no1 [Example 179, N-((4-(5-(1,1-difluoroethyl)-1,2,4-oxadiazol-3-yl)bicyclo[2.2.2]octan-1-yl)methyl)-3-fluoro-N-(3-(5-(1-methylcyclopropyl)-1,2,4-oxadiazol-3-yl)phenyl)bicyclo[1.1.1]pentane-1-carboxamide] | 58 nM
CC1(c2nc(-c3cccc(N(CC45CCC(c6noc(C7(C)COC7)n6)(CC4)CC5)C(=O)C45CC(F)(C4)C5)c3)no2)CC1 [Example 180, 3-fluoro-N-(3-(5-(1-methylcyclopropyl)-1,2,4-oxadiazol-3-yl)phenyl)-N-((4-(5-(3-methyloxetan-3-yl)-1,2,4-oxadiazol-3-yl)bicyclo[2.2.2]octan-1-yl)methyl) bicyclo[1.1.1]pentane-1-carboxamide] | 83 nM
CC(C)(C)c1nc(-c2cccc(N(CC34CCC(c5cnc(C(F)(F)F)nc5)(CC3)OC4)C(=O)C34CC(F)(C3)C4)c2)no1 [Example 181, N-(3-(5-(tert-butyl)-1,2,4-oxadiazol-3-yl)phenyl)-3-fluoro-N-((1-(2-(trifluoromethyl)pyrimidin-5-yl)-2-oxabicyclo[2.2.2]octan-4-yl)methyl)bicyclo[1.1.1]pentane-1-carboxamide] | 828 nM
O=C(N(CC12CCC(c3cnc(C(F)(F)F)nc3)(CC1)OC2)c1cccc(-c2noc(C(F)F)n2)c1)C12CC(F)(C1)C2 [Example 182, N-(3-(5-(difluoromethyl)-1,2,4-oxadiazol-3-yl)phenyl)-3-fluoro-N-((1-(2-(trifluoromethyl)pyrimidin-5-yl)-2-oxabicyclo[2.2.2]octan-4-yl)methyl) bicyclo[1.1.1]pentane-1-carboxamide] | 2000 nM
CC(C)(C)c1nc(-c2cccc(N(CC34CCC(c5noc(C(C)(C)C)n5)(CC3)CC4)C(=O)C34CC(F)(C3)C4)c2)no1 [Example 183, N-((4-(5-(tert-butyl)-1,2,4-oxadiazol-3-yl)bicyclo[2.2.2]octan-1-yl)methyl)-N-(3-(5-(tert-butyl)-1,2,4-oxadiazol-3-yl)phenyl)-3-fluorobicyclo[1.1.1]pentane-1-carboxamide] | 18 nM
O=C(N(CC12CCC(c3noc(C(F)F)n3)(CC1)CC2)c1cccc(-c2noc(C(F)F)n2)c1)C12CC(F)(C1)C2 [Example 184, N-((4-(5-(difluoromethyl)-1,2,4-oxadiazol-3-yl)bicyclo[2.2.2]octan-1-yl)methyl)-N-(3-(5-(difluoromethyl)-1,2,4-oxadiazol-3-yl)phenyl)-3-fluorobicyclo[1.1.1]pentane-1-carboxamide] | 58 nM
O=C(N(CC12CCC(c3ccc(C(F)(F)F)cn3)(CC1)CC2)c1cccc(-c2noc(C3CC3)n2)c1)C12CC(F)(C1)C2 [Example 185, N-(3-(5-cyclopropyl-1,2,4-oxadiazol-3-yl)phenyl)-3-fluoro-N-((4-(5-(trifluoromethyl)pyridin-2-yl)bicyclo[2.2.2]octan-1-yl)methyl)bicyclo[1.1.1]pentane-1-carboxamide] | 508 nM
CC1(c2nc(-c3cccc(N(CC45CCC(c6ccc(C(F)(F)F)cn6)(CC4)CC5)C(=O)C45CC(F)(C4)C5)c3)no2)CC1 [Example 186, 3-fluoro-N-(3-(5-(1-methylcyclopropyl)-1,2,4-oxadiazol-3-yl)phenyl)-N-((4-(5-(trifluoromethyl)pyridin-2-yl)bicyclo[2.2.2]octan-1-yl)methyl)bicyclo[1.1.1]pentane-1-carboxamide] | 625 nM
CC(C)c1nc(-c2cccc(N(CC34CCC(c5ccc(C(F)(F)F)cn5)(CC3)CC4)C(=O)C34CC(F)(C3)C4)c2)no1 [Example 187, 3-fluoro-N-(3-(5-isopropyl-1,2,4-oxadiazol-3-yl)phenyl)-N-((4-(5-(trifluoromethyl)pyridin-2-yl)bicyclo[2.2.2]octan-1-yl)methyl)bicyclo[1.1.1]pentane-1-carboxamide] | 605 nM
CC(C)(C)c1nc(-c2cccc(N(CC34CCC(c5ccc(C(F)(F)F)cn5)(CC3)CC4)C(=O)C34CC(F)(C3)C4)c2)no1 [Example 188, N-(3-(5-(tert-butyl)-1,2,4-oxadiazol-3-yl)phenyl)-3-fluoro-N-((4-(5-(trifluoromethyl)pyridin-2-yl)bicyclo[2.2.2]octan-1-yl)methyl)bicyclo[1.1.1]pentane-1-carboxamide] | 304 nM
O=C(N(CC12CCC(c3ccc(C(F)(F)F)cn3)(CC1)CC2)c1cccc(-c2noc(C(F)F)n2)c1)C12CC(F)(C1)C2 [Example 189, N-(3-(5-(difluoromethyl)-1,2,4-oxadiazol-3-yl)phenyl)-3-fluoro-N-((4-(5-(trifluoromethyl)pyridin-2-yl)bicyclo[2.2.2]octan-1-yl)methyl)bicyclo[1.1.1]pentane-1-carboxamide] | 691 nM
CC(F)(F)c1nc(-c2cccc(N(CC34CCC(c5ccc(C(F)(F)F)cn5)(CC3)CC4)C(=O)C34CC(F)(C3)C4)c2)no1 [Example 190, N-(3-(5-(1,1-difluoroethyl)-1,2,4-oxadiazol-3-yl)phenyl)-3-fluoro-N-((4-(5-(trifluoromethyl)pyridin-2-yl)bicyclo[2.2.2]octan-1-yl)methyl)bicyclo[1.1.1]pentane-1-carboxamide] | 281 nM
CC1(C(=O)N(CC23CCC(c4nc(C(C)(C)C)no4)(CC2)CC3)c2cccc(-c3nc(C4CC4)no3)c2)COC1 [Example 191, N-((4-(3-(tert-butyl)-1,2,4-oxadiazol-5-yl)bicyclo[2.2.2]octan-1-yl)methyl)-N-(3-(3-cyclopropyl-1,2,4-oxadiazol-5-yl)phenyl)-3-methyloxetane-3-carboxamide] | 824 nM
CO[C@H]1C[C@@H](C(=O)N(CC23CCC(c4nc(C(C)(C)C)no4)(CC2)CC3)c2cccc(-c3nc(C4CC4)no3)c2)C1 [Example 192, (1S,3S)—N-((4-(3-(tert-butyl)-1,2,4-oxadiazol-5-yl)bicyclo[2.2.2]octan-1-yl)methyl)-N-(3-(3-cyclopropyl-1,2,4-oxadiazol-5-yl)phenyl)-3-methoxycyclobutane-1-carboxamide] | 449 nM
CC(C)(C)c1noc(C23CCC(CN(C(=O)C4CN(C(=O)C(F)(F)F)C4)c4cccc(-c5nc(C6CC6)no5)c4)(CC2)CC3)n1 [Example 193, N-((4-(3-(tert-butyl)-1,2,4-oxadiazol-5-yl)bicyclo[2.2.2]octan-1-yl)methyl)-N-(3-(3-cyclopropyl-1,2,4-oxadiazol-5-yl)phenyl)-1-(2,2,2-trifluoroacetyl)azetidine-3-carboxamide] | 4870 nM
CC(C)(C)c1nc(C23CCC(CN(C(=O)C45CC(F)(C4)C5)c4cccc(-c5cnn(S(C)(=O)=O)c5)c4)(CC2)CC3)no1 [Example 194, N-((4-(5-(tert-butyl)-1,2,4-oxadiazol-3-yl)bicyclo[2.2.2]octan-1-yl)methyl)-3-fluoro-N-(3-(1-(methylsulfonyl)-1H-pyrazol-4-yl)phenyl)bicyclo[1.1.1]pentane-1-carboxamide] | 16 nM
CC(C)(C)c1nc(C23CCC(CN(C(=O)C45CC(F)(C4)C5)c4cccc(-c5cnn(S(=O)(=O)C6CC6)c5)c4)(CC2)CC3)no1 [Example 195, N-((4-(5-(tert-butyl)-1,2,4-oxadiazol-3-yl)bicyclo[2.2.2]octan-1-yl)methyl)-N-(3-(1-(cyclopropylsulfonyl)-1H-pyrazol-4-yl)phenyl)-3-fluorobicyclo[1.1.1]pentane-1-carboxamide] | 20 nM
O=C(N(CC12CCC(c3nc(C4CC4)no3)(CC1)OC2)c1cccc(-c2nc(C3CC3)no2)c1)C12CC(F)(C1)C2 [Example 196, N-((1-(3-cyclopropyl-1,2,4-oxadiazol-5-yl)-2-oxabicyclo[2.2.2]octan-4-yl)methyl)-N-(3-(3-cyclopropyl-1,2,4-oxadiazol-5-yl)phenyl)-3-fluorobicyclo[1.1.1]pentane-1-carboxamide] | 205 nM
O=C(C1CC(F)(F)C1)N(CC12CCC(c3nc(C4CC4)no3)(CC1)OC2)c1cccc(-c2nc(C3CC3)no2)c1 [Example 197, N-((1-(3-cyclopropyl-1,2,4-oxadiazol-5-yl)-2-oxabicyclo[2.2.2]octan-4-yl)methyl)-N-(3-(3-cyclopropyl-1,2,4-oxadiazol-5-yl)phenyl)-3,3-difluorocyclobutane-1-carboxamide] | 965 nM
O=C(C1CC(C(F)F)C1)N(CC12CCC(c3nc(C4CC4)no3)(CC1)OC2)c1cccc(-c2nc(C3CC3)no2)c1 (stereo not drawn) [Example 198, N-((1-(3-cyclopropyl-1,2,4-oxadiazol-5-yl)-2-oxabicyclo[2.2.2]octan-4-yl)methyl)-N-(3-(3-cyclopropyl-1,2,4-oxadiazol-5-yl)phenyl)-3-(difluoromethyl)cyclobutane-1-carboxamide] | 909 nM
O=C(N(CC12CCC(c3nc(C4CC4)no3)(CC1)OC2)c1cccc(-c2cc(C3CC3)on2)c1)C12CC(F)(C1)C2 [Example 199, N-((1-(3-cyclopropyl-1,2,4-oxadiazol-5-yl)-2-oxabicyclo[2.2.2]octan-4-yl)methyl)-N-(3-(5-cyclopropylisoxazol-3-yl)phenyl)-3-fluorobicyclo[1.1.1]pentane-1-carboxamide] | 281 nM
O=C(C1CC(F)(F)C1)N(CC12CCC(c3nc(C4CC4)no3)(CC1)OC2)c1cccc(-c2cc(C3CC3)on2)c1 [Example 200, N-((1-(3-cyclopropyl-1,2,4-oxadiazol-5-yl)-2-oxabicyclo[2.2.2]octan-4-yl)methyl)-N-(3-(5-cyclopropylisoxazol-3-yl)phenyl)-3,3-difluorocyclobutane-1-carboxamide] | 526 nM

From patent US11254663B2 (BRISTOL-MYERS SQUIBB COMPANY, priority 2019, dated 2022)
